# pIC50: −log10 of the molar value. Where a SMILES comes first, the peptide text is derived from it. The star is where a group is joined. Cbz = O=C(OCc1ccccc1)*
# Assays:
# [1] = tested on: panel of sarcoma cell lines (WE-68, VH-64, STA-ET-1, TC-252); test: Cell viability assay, panel of four sarcoma cell lines (average); format: cell-based; settings: for pIC50: average of four sarcoma cell lines, read-out: Average IC50 for cancer cell lines; for Therapeutic window: fold change in potency (IC50) against cancer cell line versus normal cell line
# Protocol: (§1) Cell viability assays were performed as previously described. Briefly, cells were seeded in 96 well microtiterplates at a density of 3×10^4 cells per well in the presence of the indicated chemical. Cells were harvested 48 hours post-treatment, centrifuged at 1,300×g, washed in phosphate-buffered saline (PBS) and stained with 7AAD solution (2 μg/mL) (7-amino-actinomycin-D, Invitrogen, Carlsbad, Calif.) for 10 mins at room temperature. Viable cells were determined with the use of a FACS Calibur flow cytometer (Becton Dickinson Immunocytometry Systems), and analyzed with the use of FLOWJO (Tree Star, Inc) and GraphPad Prism (GraphPad Software Inc).
# (§2) WE-68 and VH-64 Ewing's sarcoma cells were kindly supplied by F. van Valen (Department of Orthopaedic Surgery, Westfalische-Wilhelms-University, Germany).TC-252 and STA-ET-1 Ewing's sarcoma cells were kindly provided by G. Hamilton (Department of Surgery, University of Vienna, Austria) or P. Ambros (Children's Cancer Research Institute, St Anna Children's Hospital, Vienna, Austria). Primary human embryonic fibroblasts or primary human osteoblasts were collected from the Women's and Children's Hospital (North Adelaide, South Australia, Australia) or Royal Adelaide Hospital with patient consent. Mouse Embryonic Fibroblasts (MEFs) and its p53-null derivative were kindly supplied by Guillermina Lozano (Department of Genetics, Anderson Cancer Centre, University of Texas, Houston, Tex., USA). WE-68 cell lines were grown in RPMI-1640 media, whilst human embryonic fibroblasts and MEFs were grown in Dulbecco's Modified Eagle's Medium (DMEM). Media was supplemented with 10% FCS, 1% PSG and 10 mM HEPES. All cells were maintained at 37° C. in a humidified atmosphere of 5% CO2.
# [2] = tested on: normal cell lines (fibroblasts, osteoblasts); test: Cell viability assay, normal cell lines (average); format: cell-based; settings: Homo sapiens; average of fibroblasts and osteoblasts
# Protocol: as §1, §2
# [3] = tested on: TC-252 Ewing's sarcoma cells; test: Cell viability assay (7AAD, 48 hours), TC-252; format: cell-based; settings: 48 hours exposure; read-out: Cancer cell lines IC50 (μM) TC-252
# Protocol: as §1, §2
# [4] = tested on: STA-ET-1 Ewing's sarcoma cells; test: Cell viability assay (7AAD, 48 hours), STA-ET-1; format: cell-based; settings: 48 hours exposure; read-out: Cancer cell lines IC50 (μM) STA-ET-1
# Protocol: as §1, §2
# [5] = molecular target: T1, 20S proteasome T-L activity (Oryctolagus cuniculus, UniProt G1SWK8); test: In vitro proteasome activity assay, T-L (Ac-RLR-AMC); format: biochemical, rabbit; settings: purified 20S proteasome; highest concentration tested 25,000 nM
# T1 construct: purchased Boston Biochem
# T1 sequence (G1SWK8 1-271): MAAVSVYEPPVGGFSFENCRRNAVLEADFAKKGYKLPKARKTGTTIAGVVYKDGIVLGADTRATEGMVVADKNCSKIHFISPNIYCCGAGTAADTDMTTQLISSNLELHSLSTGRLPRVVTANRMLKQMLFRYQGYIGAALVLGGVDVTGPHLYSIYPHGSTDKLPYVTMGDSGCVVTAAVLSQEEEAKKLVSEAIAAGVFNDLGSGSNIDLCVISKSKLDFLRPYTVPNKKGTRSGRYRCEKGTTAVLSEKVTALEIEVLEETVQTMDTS
# Protocol: The assays were performed in vitro using purified 20S proteasome/inhibitor mixtures, with the activity of each subunit of the proteasome assessed upon incubation with its respective target peptide.
# (§3) Purified rabbit 20S proteasome and fluorogenic CT-L substrate (Suc-LLVY-AMC) were purchased from Boston Biochem (Cambridge, Mass., USA). The T-L and CP-L fluorogenic substrates (Ac-RLR-AMC and Z-nLPnLD-AMC) were purchased from Enzo Life Sciences (Farmingdale, N.Y., USA). The 20S proteasome was diluted to 0.2 μg/μL in 20S proteasome buffer (50 mM HEPES pH 7.6, 150 mM NaCl and 1 mM DDT) and stored at −80° C. Purified 20S proteasome (8 ng) was pre-incubated with the indicated concentrations of inhibitors for 15 minutes and subsequently added to the AMC-labeled substrate peptide (50 μM) in assay buffer (25 mM HEPES, pH 7.5, 0.5 mM EDTA, 0.05% NP-40, and 0.001% SDS (w/v)) at 37° C. for 2 hours.
# [6] = tested on: primary human embryonic fibroblasts; test: Cell viability assay (7AAD, 48 hours), normal fibroblasts; format: cell-based; settings: Fibroblast, 48 hours exposure, read-out: Normal cell lines IC50 (μM) Fibroblasts
# Protocol: as §1, §2
# [7] = molecular target: T2, 20S proteasome CP-L activity (Oryctolagus cuniculus, UniProt A0A5F9DQW2); test: In vitro proteasome activity assay, CP-L (Z-nLPnLD-AMC); format: biochemical, rabbit; settings: purified 20S proteasome; highest concentration tested 25,000 nM
# T2 construct: Purified rabbit 20S proteasome
# T2 sequence (A0A5F9DQW2 1-212): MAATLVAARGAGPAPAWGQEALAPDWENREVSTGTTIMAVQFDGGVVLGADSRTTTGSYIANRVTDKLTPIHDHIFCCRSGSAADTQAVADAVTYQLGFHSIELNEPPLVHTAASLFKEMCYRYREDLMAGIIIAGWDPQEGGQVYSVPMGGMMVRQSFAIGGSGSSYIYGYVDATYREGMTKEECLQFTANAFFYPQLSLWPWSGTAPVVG
# Protocol: We initially determined the ability of the novel tripeptide MG132 analogues 1-6 and the macrocycles 3a and 4a to inhibit the three separate protease activities of the 20S proteasome (CT-L, -T-L and CP-L). The assays were performed in vitro using purified 20S proteasome/inhibitor mixtures, with the activity of each subunit of the proteasome assessed upon incubation with its respective target peptide. […] In addition, there is no apparent clear-cut preference for the length of tether (compare compounds 1 to 4), while the introduction of an aryl group at P3 (as in 6) is well tolerated.
# as §3, with “hours. Fluorescent substrate cleavage by the 20S proteasome was linear during this incubation timeframe (Supplementary Figure S4. Hydrolysed 7-amino-4-methylcoumarin (AMC) was subsequently detected with the FLUOstar OPTIMA microplatefluorometer at excitation/emission of 390/460 nm. The activity was estimated in relative fluorescence units and half of the maximal inhibitory activity of the proteasome is represented by IC50 values. A minimum of three biological replicates were performed for each data point.” for “hours.”
# [8] = tested on: primary human osteoblasts; test: Cell viability assay (7AAD, 48 hours), normal osteoblasts; format: cell-based; settings: Osteoblast, 48 hours exposure, read-out: Normal cell lines IC50 (μM) Osteoblasts
# Protocol: as §1, §2
Structure (SMILES),pIC50 [1],Therapeutic window [1],pIC50 [2],IC50 [3],IC50 [4],IC50 [5],IC50 [6],IC50 [7],IC50 [8],more potency against cancer cells over normal cells [1]
C#CCOc1ccc(C[C@@H](C=O)NC(=O)[C@H](CC(C)C)NC(=O)[C@H](CCN=[N+]=[N-])NC(=O)OCc2ccccc2)cc1 [Compound 2],5.37,×5.0,4.67,2.3 µM,5.4 µM,> 25000 nM,29.4 µM,> 25000 nM,13.6 µM,
C#CCOc1ccc(C[C@@H](C=O)NC(=O)[C@H](CC(C)C)NC(=O)[C@H](CCCN=[N+]=[N-])NC(=O)OCc2ccccc2)cc1 [Compound 3],5.80,×8.7,4.86,1.2 µM,2.6 µM,> 25000 nM,8.8 µM,> 25000 nM,18.8 µM,
C#CCOc1ccc(C[C@@H](C=O)NC(=O)[C@H](CC(C)C)NC(=O)[C@H](CCCCN=[N+]=[N-])NC(=O)OCc2ccccc2)cc1 [Compound 4],5.38,×5.9,4.60,1.6 µM,2.6 µM,> 25000 nM,39.5 µM,> 25000 nM,10.4 µM,
C#CCOc1ccc(C[C@@H](C=O)NC(=O)[C@@H](NC(=O)[C@H](CCCCN=[N+]=[N-])NC(=O)OCc2ccccc2)[C@@H](C)CC)cc1 [Compound 5],6.06,×14.1,4.91,0.42 µM,1 µM,> 25000 nM,19.9 µM,> 25000 nM,4.8 µM,
C#CCOc1ccc(C[C@@H](C=O)NC(=O)[C@H](CC(C)C)NC(=O)[C@H](Cc2ccc(N=[N+]=[N-])cc2)NC(=O)OCc2ccccc2)cc1 [Compound 6],5.82,×19.0,4.55,0.64 µM,2.4 µM,> 25000 nM,45.4 µM,> 25000 nM,11.6 µM,19 fold
"CC(C)C[C@@H](C=O)NC(=O)[C@H](CC(C)C)NC(=O)[C@H](CC(C)C)NC(=O)OCc1ccccc1 [MG132, reference compound] (Cbz-Leu-Leu-Leu-aldehyde)",6.21,×4.5,5.55,0.49 µM,0.59 µM,2000 nM,2.8 µM,545 nM,2.7 µM,

# — patent US20150299250A1, “MACROCYCLIC COMPOUNDS AND USES THEREOF” (ADELAIDE RESEARCH & INNOVATION PTY LTD, priority 2012, published 2015)
